In patent US20260373156A1, “CANCER TREATMENTS USING MTA-COOPERATIVE PRMT5 INHIBITORS” (AMGEN INC., priority 2022, published 2026):

How the values were obtained:
SUM149PT cells = test: CellTiter-Glo viability and CalcuSyn synergy, PRMT5 inhibitor + olaparib, 6 days; format: cell-based; details: for Combination Fa: 8640 min
Procedure: (§1) Raw luminescent values were converted to fraction affected (Fa) with the following equation: […]
(§2) Synergy analysis was performed using the CalcuSyn software to determine CI scores based on the drug concentrations used and corresponding Fa values. Results are shown in Tables 1-3 below. *CI Values (Calcusyn): Strong Synergism: 0.1-0.3; Synergism: 0.3-0.7; Moderate Synergism: 0.7-0.85; Slight Synergism: 0.85-0.9; Nearly Additive: 0.9-1.1.

LU99 cells = test: CellTiter-Glo viability and CalcuSyn synergy, PRMT5 inhibitor + KIF18A, 6 days; format: cell-based; details: for Combination Fa: 8640 min
Procedure: as §1
as §2, with “13-15” for “1-3”

LU99 NSCLC xenografts = test: Tumor growth inhibition, LU99 NSCLC xenografts (Example 12); format: in vivo, Female NOD/SCID mice; details: Compound B 100 mg/kg orally once daily + sotorasib 100 mg/kg; versus either single agent alone
Source text: 10 Female NOD/SCID mice were implanted with LU99 NSCLC tumor xenografts. Mean tumor volumes for each grouping were between 100-200 mm^3. […] Plotted data represents the TGI (tumor growth inhibition), n=10 for each group.

MIAPACA2 cells = test: CellTiter-Glo viability and CalcuSyn synergy, PRMT5 inhibitor + sotorasib, 6 days (Example 15); format: cell-based; set-up: key: CI<1 synergy, CI=1 additivity, CI>1 antagonism
Procedure: as §1
Synergy analysis was performed using the CalcuSyn software to determine CI scores based on the drug concentrations used and corresponding Fa values. Results are shown in Table 24 below. *CI Values (Calcusyn): CI<1 indicates synergy. C=1 indicates additivity. C>1 indicates antagonism.

H292 cells = test: CellTiter-Glo viability and CalcuSyn synergy, PRMT5 inhibitor + palbociclib, 6 days; details: for Combination Fa: 8640 min
A549 cells = test: as above; details: for Combination Fa: 8640 min
[1] = Compound B 0.277008 μM + olaparib 0.103573 μM
[2] = Compound B 0.277008 μM + olaparib 0.176074 μM
[3] = Compound B 0.277008 μM + olaparib 0.299326 μM
[4] = Compound B 0.277008 μM + olaparib 0.508854 μM
[5] = Compound B 0.277008 μM + olaparib 0.865052 μM
[6] = Compound B 0.277008 μM + olaparib 1.47059 μM
[7] = Compound B 0.277008 μM + olaparib 2.5 μM
[8] = Compound B 0.0729 μM + KIF18A 0.003984 μM
[9] = Compound B 0.0729 μM + KIF18A 0.005578 μM
[10] = Compound B 0.0729 μM + KIF18A 0.007809 μM
[11] = Compound B 0.0729 μM + KIF18A 0.010933 μM
[12] = Compound B 0.0729 μM + KIF18A 0.015306 μM
[13] = Compound B 0.0729 μM + KIF18A 0.021429 μM
[14] = Compound B 0.0729 μM + KIF18A 0.03 μM
[15] = Compound B 0.0425 μM + palbociclib 0.044102 μM
[16] = Compound B 0.0425 μM + palbociclib 0.079383 μM
[17] = Compound B 0.0425 μM + palbociclib 0.14289 μM
[18] = Compound B 0.0425 μM + palbociclib 0.257202 μM
[19] = Compound B 0.0425 μM + palbociclib 0.462963 μM
[20] = Compound B 0.0425 μM + palbociclib 0.833333 μM
[21] = Compound B 0.0425 μM + palbociclib 1.5 μM
[22] = Compound B 0.1535 μM + palbociclib 0.298023 μM
[23] = Compound B 0.1535 μM + palbociclib 0.476837 μM
[24] = Compound B 0.1535 μM + palbociclib 0.762939 μM
[25] = Compound B 0.1535 μM + palbociclib 1.2207 μM
[26] = Compound B 0.1535 μM + palbociclib 1.95313 μM
[27] = Compound B 0.1535 μM + palbociclib 3.125 μM
[28] = Compound B 0.1535 μM + palbociclib 5 μM

Cc1cc2cc(C(=O)N(Cc3ccc(C(F)(F)F)cn3)[C@@H](C)c3ncccn3)ccc2nc1N [Compound B]
Computed CI value (SUM149PT cells; [1]): 0.618 | Combination Fa (SUM149PT cells; [1]): 0.747 | Computed CI value (SUM149PT cells; [2]): 0.579 | Combination Fa (SUM149PT cells; [2]): 0.769 | Computed CI value (SUM149PT cells; [3]): 0.777 | Combination Fa (SUM149PT cells; [3]): 0.745 | Computed CI value (SUM149PT cells; [4]): 0.582 | Combination Fa (SUM149PT cells; [4]): 0.813 | Computed CI value (SUM149PT cells; [5]): 0.565 | Combination Fa (SUM149PT cells; [5]): 0.849 | Computed CI value (SUM149PT cells; [6]): 0.543 | Combination Fa (SUM149PT cells; [6]): 0.888 | Computed CI value (SUM149PT cells; [7]): 0.504 | Combination Fa (SUM149PT cells; [7]): 0.925 | Computed CI value (LU99 cells; [8]): 0.937 | Combination Fa (LU99 cells; [8]): 0.596 | Computed CI value (LU99 cells; [9]): 0.625 | Combination Fa (LU99 cells; [9]): 0.7067 | Computed CI value (LU99 cells; [10]): 0.753 | Combination Fa (LU99 cells; [10]): 0.712 | Computed CI value (LU99 cells; [11]): 0.651 | Combination Fa (LU99 cells; [11]): 0.7754 | Computed CI value (LU99 cells; [12]): 0.797 | Combination Fa (LU99 cells; [12]): 0.785 | Computed CI value (LU99 cells; [13]): 0.996 | Combination Fa (LU99 cells; [13]): 0.7939 | Computed CI value (LU99 cells; [14]): 1.312 | Combination Fa (LU99 cells; [14]): 0.797 | anti-tumor activity (LU99 NSCLC xenografts): significant anti-tumor activity versus either single agent alone | CI score (MIAPACA2 cells; Compound B 0.018 μM + sotorasib 0.006 μM): 0.68 | CI score (MIAPACA2 cells; Compound B 0.018 μM + sotorasib 0.010 μM): 0.73 | CI score (MIAPACA2 cells; Compound B 0.018 μM + sotorasib 0.015 μM): 0.64 | CI score (MIAPACA2 cells; Compound B 0.018 μM + sotorasib 0.024 μM): 0.80 | CI score (MIAPACA2 cells; Compound B 0.018 μM + sotorasib 0.039 μM): 0.77 | CI score (MIAPACA2 cells; Compound B 0.018 μM + sotorasib 0.063 μM): 0.93 | CI score (MIAPACA2 cells; Compound B 0.018 μM + sotorasib 0.100 μM): 1.25 | CI score (MIAPACA2 cells; Compound B 0.034 μM + sotorasib 0.006 μM): 0.55 | CI score (MIAPACA2 cells; Compound B 0.034 μM + sotorasib 0.010 μM): 0.59 | CI score (MIAPACA2 cells; Compound B 0.034 μM + sotorasib 0.015 μM): 0.56 | CI score (MIAPACA2 cells; Compound B 0.034 μM + sotorasib 0.024 μM): 0.76 | CI score (MIAPACA2 cells; Compound B 0.034 μM + sotorasib 0.039 μM): 0.79 | CI score (MIAPACA2 cells; Compound B 0.034 μM + sotorasib 0.063 μM): 0.83 | CI score (MIAPACA2 cells; Compound B 0.034 μM + sotorasib 0.100 μM): 1.43 | CI score (MIAPACA2 cells; Compound B 0.064 μM + sotorasib 0.006 μM): 0.52 | CI score (MIAPACA2 cells; Compound B 0.064 μM + sotorasib 0.010 μM): 0.65 | CI score (MIAPACA2 cells; Compound B 0.064 μM + sotorasib 0.015 μM): 0.68 | CI score (MIAPACA2 cells; Compound B 0.064 μM + sotorasib 0.024 μM): 0.53 | CI score (MIAPACA2 cells; Compound B 0.064 μM + sotorasib 0.039 μM): 0.72 | CI score (MIAPACA2 cells; Compound B 0.064 μM + sotorasib 0.063 μM): 0.75 | CI score (MIAPACA2 cells; Compound B 0.064 μM + sotorasib 0.100 μM): 1.24 | CI score (MIAPACA2 cells; Compound B 0.121 μM + sotorasib 0.006 μM): 0.63 | CI score (MIAPACA2 cells; Compound B 0.121 μM + sotorasib 0.010 μM): 0.71 | CI score (MIAPACA2 cells; Compound B 0.121 μM + sotorasib 0.015 μM): 0.53 | CI score (MIAPACA2 cells; Compound B 0.121 μM + sotorasib 0.024 μM): 0.64 | CI score (MIAPACA2 cells; Compound B 0.121 μM + sotorasib 0.039 μM): 0.67 | CI score (MIAPACA2 cells; Compound B 0.121 μM + sotorasib 0.063 μM): 0.96 | CI score (MIAPACA2 cells; Compound B 0.121 μM + sotorasib 0.100 μM): 1.02 | CI score (MIAPACA2 cells; Compound B 0.230 μM + sotorasib 0.006 μM): 0.65 | CI score (MIAPACA2 cells; Compound B 0.230 μM + sotorasib 0.010 μM): 0.63 | CI score (MIAPACA2 cells; Compound B 0.230 μM + sotorasib 0.015 μM): 0.55 | CI score (MIAPACA2 cells; Compound B 0.230 μM + sotorasib 0.024 μM): 0.51 | CI score (MIAPACA2 cells; Compound B 0.230 μM + sotorasib 0.039 μM): 0.71 | CI score (MIAPACA2 cells; Compound B 0.230 μM + sotorasib 0.063 μM): 0.72 | CI score (MIAPACA2 cells; Compound B 0.230 μM + sotorasib 0.100 μM): 1.00 | CI score (MIAPACA2 cells; Compound B 0.437 μM + sotorasib 0.006 μM): 0.55 | CI score (MIAPACA2 cells; Compound B 0.437 μM + sotorasib 0.010 μM): 0.70 | CI score (MIAPACA2 cells; Compound B 0.437 μM + sotorasib 0.015 μM): 0.52 | CI score (MIAPACA2 cells; Compound B 0.437 μM + sotorasib 0.024 μM): 0.61 | CI score (MIAPACA2 cells; Compound B 0.437 μM + sotorasib 0.039 μM): 0.65 | CI score (MIAPACA2 cells; Compound B 0.437 μM + sotorasib 0.063 μM): 0.67 | CI score (MIAPACA2 cells; Compound B 0.437 μM + sotorasib 0.100 μM): 1.06 | CI score (MIAPACA2 cells; Compound B 0.831 μM + sotorasib 0.006 μM): 0.83 | CI score (MIAPACA2 cells; Compound B 0.831 μM + sotorasib 0.010 μM): 0.85 | CI score (MIAPACA2 cells; Compound B 0.831 μM + sotorasib 0.015 μM): 0.68 | CI score (MIAPACA2 cells; Compound B 0.831 μM + sotorasib 0.024 μM): 0.65 | CI score (MIAPACA2 cells; Compound B 0.831 μM + sotorasib 0.039 μM): 0.75 | CI score (MIAPACA2 cells; Compound B 0.831 μM + sotorasib 0.063 μM): 0.89 | CI score (MIAPACA2 cells; Compound B 0.831 μM + sotorasib 0.100 μM): 1.15 | CI score (MIAPACA2 cells; Compound B 1.579 μM + sotorasib 0.006 μM): 1.30 | CI score (MIAPACA2 cells; Compound B 1.579 μM + sotorasib 0.010 μM): 1.37 | CI score (MIAPACA2 cells; Compound B 1.579 μM + sotorasib 0.015 μM): 0.95 | CI score (MIAPACA2 cells; Compound B 1.579 μM + sotorasib 0.024 μM): 0.91 | CI score (MIAPACA2 cells; Compound B 1.579 μM + sotorasib 0.039 μM): 0.95 | CI score (MIAPACA2 cells; Compound B 1.579 μM + sotorasib 0.063 μM): 0.98 | CI score (MIAPACA2 cells; Compound B 1.579 μM + sotorasib 0.100 μM): 1.25 | Computed CI value (H292 cells; [15]): 0.421 | Combination Fa (H292 cells; [15]): 0.6807 | Computed CI value (H292 cells; [16]): 0.403 | Combination Fa (H292 cells; [16]): 0.7009 | Computed CI value (H292 cells; [17]): 0.284 | Combination Fa (H292 cells; [17]): 0.7704 | Computed CI value (H292 cells; [18]): 0.308 | Combination Fa (H292 cells; [18]): 0.7959 | Computed CI value (H292 cells; [19]): 0.395 | Combination Fa (H292 cells; [19]): 0.8126 | Computed CI value (H292 cells; [20]): 0.587 | Combination Fa (H292 cells; [20]): 0.8205 | Computed CI value (H292 cells; [21]): 0.878 | Combination Fa (H292 cells; [21]): 0.8344 | Computed CI value (A549 cells; [22]): 0.293 | Combination Fa (A549 cells; [22]): 0.6994 | Computed CI value (A549 cells; [23]): 0.341 | Combination Fa (A549 cells; [23]): 0.7105 | Computed CI value (A549 cells; [24]): 0.497 | Combination Fa (A549 cells; [24]): 0.7007 | Computed CI value (A549 cells; [25]): 0.421 | Combination Fa (A549 cells; [25]): 0.7619 | Computed CI value (A549 cells; [26]): 0.626 | Combination Fa (A549 cells; [26]): 0.761 | Computed CI value (A549 cells; [27]): 0.685 | Combination Fa (A549 cells; [27]): 0.7958 | Computed CI value (A549 cells; [28]): 0.377 | Combination Fa (A549 cells; [28]): 0.8818
